According to patent US9145405B2, “Oxadiazole compound and preparation method thereof, pharmaceutical composition and use thereof” (SHANGHAI JIAO TONG UNIVERSITY, priority 2011, dated 2015):
In brackets after ≈: the same amount, converted by molar mass. Like-named read-outs stand apart in the source and are kept apart here.

Assays:
[1] = test system: Cox_B3 virus; experiment: Anti-Cox_B3 test: inhibition of cytopathic effect (CPE) in infected Vero cells, Reed-Muench; assay type: cell-based; conditions: for IC50: read-out: IC50 (half-inhibitory concentration for viruses)
Source text: The present examples verifies experimental results of anti-Cox_B3 of the compounds 1-137of the present invention, Pleconaril, 3-[3,5-dimethyl-4-[5-(3-methy-1,2-oxazolyl)propoxy]phenyl]-5-(trifluonomethyl) -1,2,4-oxadiazole is used as positive control.

[2] = test system: Vero cells; experiment: Toxicity (half toxic concentration) in the anti-Cox_B3 test on Vero cells; assay type: cell-based
[3] = Cox_B3 virus in Vero cells, CPE, Reed-Muench method

Compound	IC50 [1, 3] [µg/mL]	TC50 (half of the toxic concentration) ([2]; Vero cells, Cox_B3) [µg/mL]	IC50 (half-inhibitory concentration for viruses) [1, 3] [µg/mL]	TC50 (half of the toxic concentration) [2] [µg/mL]	IC50 ([1]; Vero) [µg/mL]
Cc1cc(-c2noc(C(F)(F)F)n2)cc(C)c1OCCCOc1ncc(-c2noc(C(F)(F)F)n2)cc1F [Compound 122, 2-[3-[2,6-dimethyl-4-[5-(trifluoromethyl)-1,2,4-oxadiazole-3-yl]phenoxyl]propoxy]-3-fluoro-5-[5-(trifluoromethyl)-1,2,4-oxadiazole-3-yl]-pyridine]	0.041 (≈ 0.0749 µM)	34.87			
Cc1cc(-c2noc(C(F)(F)F)n2)cc(C)c1OCCOc1ccc(-c2noc(C(F)(F)F)n2)cc1F [Compound 123]			0.043	35.88	
Cc1cc(-c2noc(C(F)(F)F)n2)cc(C)c1OCCCOc1ccc(-c2noc(C(F)(F)F)n2)cc1F [Compound 124]			0.037	32.58	
Cc1cc(-c2noc(C(F)(F)F)n2)cc(C)c1OCCCOC1CCC(C)C(C)C1 (stereo not drawn) [Compound 129, 3-[4-[3-[3,4-dimethylcyclohexyloxy]propoxy]-3,5-dimethylphenyl]-5-(trifluoromethyl)-1,2,4-oxadiazole]		35.46			0.025 (≈ 0.0586 µM)
Cc1cc(-c2noc(C(F)(F)F)n2)cc(C)c1OCCCOc1cnc(C#N)cn1 [Compound 131, 2-cyano-5-[3-[2,6-dimethyl-4-[5-(trifluoromethyl)-1,2,4-oxadiazole-3-yl]phenoxyl]propoxy]pyrazine]		36.87			0.035 (≈ 0.0835 µM)
Cc1cc(-c2noc(C(F)(F)F)n2)cc(C)c1OCCCOc1ncc(C#N)cn1 [Compound 132, 2-[3-[2,6-dimethyl-4-[5-(trifluoromethyl)-1,2,4-oxadiazole-3-yl]phenoxyl]propoxy]-5-cyano-pyrimidine]	0.04 (≈ 0.0954 µM)	39.23			
Cc1cc(-c2noc(C(F)(F)F)n2)cc(C)c1OCCCOc1ccc(C#N)nn1 [Compound 133, 3-cyano-6-[3-[2,6-dimethyl-4-[5-(trifluoromethyl)-1,2,4-oxadiazole-3-yl]phenoxyl]propoxy]pyridazine]	0.041 (≈ 0.0978 µM)	38.78			
Cc1cc(-c2noc(C(F)(F)F)n2)cc(C)c1OCCCOc1ccc([N+](=O)[O-])cn1 [Compound 134, 2-[3-[2,6-dimethyl-4-[5-(trifluoromethyl)-1,2,4-oxadiazole-3-yl]phenoxyl]propoxy]-5-nitropyridine]	0.045 (≈ 0.103 µM)	40.25			
Cc1cc(-c2noc(C(F)(F)F)n2)cc(C)c1OCCCOc1cnc(-c2noc(C(F)(F)F)n2)cn1 [Compound 135, 2-[5-(trifluoromethyl)-1,2,4-oxadiazole-3-yl]-5-[3-[2,6-dimethyl-4-[5-(trifluoromethyl)-1,2,4-oxadiazole-3-yl]phenoxyl]propoxy]pyrazine]	0.038 (≈ 0.0716 µM)	42.18			
Cc1cc(-c2noc(C(F)(F)F)n2)cc(C)c1OCCCOc1ncc(-c2noc(C(F)(F)F)n2)cn1 [Compound 136, 2-[3-[2,6-dimethyl-4-[5-(trifluoromethyl)-1,2,4-oxadiazole-3-yl]phenoxyl]propoxy]-5-[5-(trifluoromethyl)-1,2,4-oxadiazole-3-yl]-pyrimidine]	0.04 (≈ 0.0754 µM)	41.23			
Cc1cc(-c2noc(C(F)(F)F)n2)cc(C)c1OCCCOc1ccc(-c2noc(C(F)(F)F)n2)nn1 [Compound 137, 3-[5-(trifluoromethyl)-1,2,4-oxadiazole-3-yl]-6-[3-[2,6-dimethyl-4-[5-(trifluoromethyl)-1,2,4-oxadiazole-3-yl]phenoxyl]propoxy]pyridazine]	0.039 (≈ 0.0735 µM)	41.65			
Cc1cc(CCCOc2c(C)cc(-c3noc(C(F)(F)F)n3)cc2C)on1 [Pleconaril, 3-[3,5-dimethyl-4-[5-(3-methy-1,2-oxazolyl)propoxy]phenyl]-5-(trifluonomethyl) -1,2,4-oxadiazole, reference compound]		17.25			0.04 (≈ 0.105 µM)
